From paper PMC7129073 (Clinical Microbiology and Infection, 2015)
Values after ≈ are worked out from the molar mass of the structure shown.

Key:
[1] = Mediterranean spotted fever, randomised therapeutic study; format: in vivo, human
[2] = tested on: C. pneumoniae target genes (LcrD, YscL, YscN, IncA, IncC, TyrB, GlyA); assay: Chlamydial gene expression; format: cell-based, Chlamydia pneumoniae; conditions: moxifloxacin 3.1 μg/ml, clarithromycin 2 μg/ml; peaking at 120 h
[3] = tested on: H. influenzae (HI); assay: SENTRY Brazil, NCCLS broth microdilution; format: cell-based, Haemophilus influenzae
[4] = tested on: Nocardia spp.; assay: E-test on Mueller Hinton agar, 81 clinical isolates; format: cell-based; conditions: Nocardia
[5] = tested on: Streptococcus pneumoniae (SPN); assay: MIC; format: cell-based; conditions: 8378 isolates
[6] = tested on: Moraxella catarrhalis (MC); assay: MIC; format: cell-based; conditions: 2497 isolates
[7] = tested on: Streptococcus pyogenes (SPY); assay: MIC; format: cell-based; conditions: 2522 isolates
[8] = tested on: H.influenzae; assay: PROTEKT Italy, NCCLS microdilution; format: cell-based, Haemophilus influenzae
[9] = tested on: glycopeptide intermediate Staphylococcus species (GISS); assay: VITEK II, screening plate and E test, blood isolates; format: cell-based, coagulase-negative Staphylococci; conditions: six out of 73
[10] = tested on: S. aureus; assay: E-test susceptibility; format: cell-based, Staphylococcus aureus
[11] = tested on: S. aureus; assay: susceptibility of bloodstream isolates; format: cell-based
[12] = tested on: foreign body infection Staphylococcus epidermidis strains; assay: NCCLS disk diffusion; format: cell-based; conditions: 86 strains

CC[C@H]1OC(=O)[C@H](C)[C@@H](O[C@H]2C[C@@](C)(OC)[C@@H](O)[C@H](C)O2)[C@H](C)[C@@H](O[C@@H]2O[C@H](C)C[C@H](N(C)C)[C@H]2O)[C@](C)(OC)C[C@@H](C)C(=O)[C@H](C)[C@@H](O)[C@]1(C)O [clarithromycin]
adverse reactions or relapses ([1]; either group): no adverse reactions
time for disappearance of the fever after treatment ([1]; group A n=14, group B n=20): 2.57 ± 1.7 days
time to disappearance of symptoms ([1]; group A n=14, group B n=20): 4.35 ± 2.5 days
upregulation of mRNA of all target genes [2]: less prominent
% S [3]; 1998: 90%
% S [3]; 1999: 100%
% S [3]; 2000: 92%
% S [3]; 2001: 91%
% S [3]; 2002: 90%
% S [3]; 2003: 94%
MIC50 [4]: 8 µg/mL (≈ 10.7 µM)
MIC90 [4]: 96 µg/mL (≈ 128 µM)
MIC90 [5]: 0.5 ig/ml
MIC90 [6]: 0.5 ig/ml
MIC90 [7]: 0.12 ig/ml
resistance ([8]; year 1): 36.9%
resistance ([8]; year 2): 25.7%

Cc1onc(-c2ccccc2)c1C(=O)N[C@@H]1C(=O)N2[C@@H]1SC(C)(C)[C@@H]2C(=O)O [oxacillin]
sensitive strains [9]: 8,2%
Susceptibility ([10]; ICU, SRGA breakpoints, tigecycline tentative S ≤2 μg/ml): 97%
Susceptibility ([10]; non-ICU): 98%
% isolates resistant ([10]; total): 2%
resistance [11]: 43%
% resistant [12]: More than 30%
